Consider one compound from patent publication US8329141B2, “Locoregional internal radionuclide ablation of abnormal tissues” (Board of Regents, The University of Texas System, priority 2004, dated 2012).

Series [1] concerns rat mammary cancer 13762F tumor cells. The series is described as follows: In vivo tumor growth after intratumoral injection of radiopharmaceuticals (rat mammary cancer model). More on the design: species or system Fischer 344 female rats. Here is the method: The radionuclides YCl3, ^111In—Cl, and ^201Tl—Cl were obtained from a local supplier of radioisotopes, Iso-Tex Diagnostics (Friendswood, Tex.). YCl3 obtained from the supplier was in an acidic preparation with a pH of 2-3, and was subsequently diluted in saline to a final pH of about 4-6 before injection. Initial activities of ^111In—Cl and YCl3 were about 200-500 mCi/ml, and dilution were made with preservative-free saline. YIMA was prepared by co-precipitation, as set forth in U.S. Ser. No. 10/724,027. Briefly, 500 μl of FeCl3 (1 mg Fe/ml) was added to 30 μl of ^90Y chloride (20-40 μCi/30 μl), and either 30 μl of NaOH (1.0 N) or 10 μl of NH4OH (20.0%) was added to the solution to reach a pH of about 7.0 to 9.0. Co-precipitated YIMA radiopharmaceutical macroaggregates were then separated from remaining soluble radionuclides by centrifuging the reactions from 1500 RPM to 3000 RPM×5 minutes, and filtered using a Millipore Nylone (size: 0.45 μm, diameter: 13 mm) to isolate the radiopharmaceutical macroaggregates.
The rat model of in vivo tumor growth was generated as follows. On day zero, 100,000 rat mammary cancer 13762F tumor cells were implanted in a volume of 0.15 ml into the right thigh muscle of Fischer 344 female rats weighing approximately 160 grams. […] YIMA was injected in a volume of 0.2 ml on days 3-7 after tumor implantation. Tumor sizes and body weights of the rats were monitored regularly (5 times a week) for several weeks, or until the tumors grew beyond 2.5 cm, at which time the rats were euthanized.

A further series deals with CSF proteins. Put plainly: Binding to CSF proteins (Centrifree filter separation). In kind it is in vitro ADME, human (patients). The note with it: 0.2, 0.5 or 1 μCi added to diluted CSF, 20 minutes; physiologic range, all concentrations tested. Here is the method: To test the hypothesis that local sequestration of ^111In—Cl is due to protein binding, both ^111In—Cl and YCl3 were tested for binding to CSF and serum proteins. Serum proteins were obtained from residual baseline serum and CSF proteins were obtained from patients participating in other research protocols who had consented to blood sampling. To determine the level of ^111In—Cl protein binding, 0.2, 0.5, or 1 μCi of ^111In—Cl was added to diluted CSF (0.125 or 0.5) or diluted serum protein (0.125 and 0.25) and incubated for 20 minutes. To determine the level of YCl3 protein binding, 0.2, 0.5, or 1 μCi of YCl3 was added to diluted CSF (0.063 or 0.5) or diluted serum protein (0.063 and 0.375), and incubated for 20 minutes. After incubation, free radiopharmaceuticals were separated from protein bound ^111In—Cl or YCl3 using Amicon Centrifree Micropartition filters in a single centrifugation step at 3000 g for 15 minutes according to manufacturer's instructions (Amicon, Beverly, Mass.). The percent binding of YCl3 or ^111In—Cl to the CSF or serum protein was then calculated. As shown in FIG. 6 and FIG. 7 respectively, both YCl3 and ^111In—Cl bind avidly to CSF and serum protein within the physiologic range (a dilution factor between 0.2 and 0.6) at all concentrations tested. At room temperature, both YCl3 and ^111In—Cl have greater than 95% binding to serum proteins.

Another series deals with serum proteins. Put plainly: Binding to serum proteins (Centrifree filter separation). In kind it is in vitro ADME, human (patients). The settings on record: 0.2, 0.5 or 1 μCi added to diluted serum protein, 20 minutes; physiologic range, all concentrations tested. Here is the method: To test the hypothesis that local sequestration of ^111In—Cl is due to protein binding, both ^111In—Cl and YCl3 were tested for binding to CSF and serum proteins. Serum proteins were obtained from residual baseline serum and CSF proteins were obtained from patients participating in other research protocols who had consented to blood sampling. To determine the level of ^111In—Cl protein binding, 0.2, 0.5, or 1 μCi of ^111In—Cl was added to diluted CSF (0.125 or 0.5) or diluted serum protein (0.125 and 0.25) and incubated for 20 minutes. To determine the level of YCl3 protein binding, 0.2, 0.5, or 1 μCi of YCl3 was added to diluted CSF (0.063 or 0.5) or diluted serum protein (0.063 and 0.375), and incubated for 20 minutes. After incubation, free radiopharmaceuticals were separated from protein bound ^111In—Cl or YCl3 using Amicon Centrifree Micropartition filters in a single centrifugation step at 3000 g for 15 minutes according to manufacturer's instructions (Amicon, Beverly, Mass.). The percent binding of YCl3 or ^111In—Cl to the CSF or serum protein was then calculated. As shown in FIG. 6 and FIG. 7 respectively, both YCl3 and ^111In—Cl bind avidly to CSF and serum protein within the physiologic range (a dilution factor between 0.2 and 0.6) at all concentrations tested. At room temperature, both YCl3 and ^111In—Cl have greater than 95% binding to serum proteins. […]

The nature of series [2]: Biodistribution and projected human radiation dosimetry after intravenous or intramuscular injection. The series is classed as in vivo, female Fisher rats. The settings on record: for human dosimetry estimate, kidney / human dosimetry estimate, red marrow: from rat biodistribution. Here is the method:
To evaluate the radiation toxicity of YCl3 after intravenous or intramuscular injection, parallel experiments were performed to evaluate the biodistribution and projected human radiation dosimetry of both ^111In—Cl and YCl3. The experiments used three female Fisher rats (140-160 grams) for each set of injections. Each rat was injected intravenously, or was injected intramuscularly in the right thigh, with 0.05 mCi of YCl3 or ^111In—Cl (with no carrier added) in 0.1 ml saline (pH 5-6). The effect of initial exposure of the radiopharmaceuticals to interstitial fluid was estimated by serum protein binding experiments using Millipore Centrifree filters as set forth in Example 2. Organs including the right and left femur, as well as the right and left thigh muscles, were harvested from each rat 7 days after injection. Human dosimetry for each radiopharmaceutical was constructed using established anthropomorphic models.

The conditions of series [3]: intravenous (Hirano et al. 1993); cited from earlier work.
For series [4] the following is noted: intratracheal instillation (Hirano et al. 1990); cited from earlier work.
Setting [5] is: locoregional administration in rats.

Take `[Cl][90Y]([Cl])[Cl]` [YCl3, Yttrium-90 chloride]: the tumor development result in series [1] (1 mCi intratumoral on day 10 in 0.1-0.2 ml saline, FIG. 2) is reported as “significantly suppressed”; in series [1] (200 μCi intratumoral on day 10 in 0.1-0.2 ml saline, FIG. 2) it was “significantly suppressed”; in series [1] (500 μCi intratumoral on day 10 in 0.1-0.2 ml saline, FIG. 2), “significantly suppressed”. The tumor growth result was “not significantly suppressed” in series [1] (100 μCi intratumoral on day 10 in 0.1-0.2 ml saline, FIG. 2); “significantly suppressed tumor growth” in series [1] (FIG. 3, in 0.2-0.3 ml saline, YCl3 0.3, 0.6, 1.5 mCi, ^111In—Cl 0.6, 1.2, 2.4, 4.8 mCi, ^67Ga 0.6 mCi); “significantly suppressed tumor growth” in series [1] (FIG. 4, in 0.5 ml saline, YCl3 0.5, 1.0, 2.0 mCi, ^111In—Cl 1.0, 4.0 mCi, FDG 1.0, 2.0, 3.0 mCi, ^67Ga—Fe 1.77 mCi); “clearly suppressed” in series [1] (at least 200 μCi intratumoral, FIG. 2). For the same compound, in series [1] (setting [5]), the “dose equivalent for humans at which mortality occurred” value was 350 mCi/70 Kg. The “lowest dose with consistently observed local tumor suppression effects” value in series [1] (setting [5]) was found to be 0.2 mCi. For the same compound, in series [1] (rats, sporadically, at high dose equivalents for humans (e.g., 350 mCi/70 Kg)), the “mortality after locoregional administration” value is “some mortality was observed”. Further, in the series with CSF proteins, the “binding to CSF” value is given as “bind avidly”. Moreover, in the series with serum proteins, the “binding to serum protein” value was “bind avidly”. Also, in series [2] (estimated from the left femur (opposite to the injection site)), the skeletal distribution entry is “about 16%”. Moreover, the “radiation uptake in the right thigh muscle” value in series [2] (intramuscular injection in right thigh) is on record as “high”. The “radiation uptake in right femur versus contralateral organ” value came to 3 times higher in series [2] (intramuscular injection in right thigh, decreasing over time to) and 6 times higher in series [2] (intramuscular injection in right thigh, initial). The “human dosimetry estimate, kidney” value is recorded as 1.47 cGy/mCi in series [2] (intramuscular) and 13.1 cGy/mCi in series [2] (intravenous). Moreover, the “human dosimetry estimate, red marrow” value was 0.65 cGy/mCi in series [2] (intramuscular) and 5.77 cGy/mCi in series [2] (intravenous). Further, the “organs with the highest uptake” value in series [2] (intravenous injection, 0.05 mCi in 0.1 ml saline) is “spleen, liver, and kidney”. Further, the “formation of colloidal material in blood plasma” value in series [3] is “dose-dependent formation of colloidal material”. The primary target organs entry in series [3] is “liver and spleen”. For the same compound, the pulmonary retention half-life in series [4] is on record as 169 days.
